Experimental data: patent publication US9095541B2, “Brain tumor targeting peptides and methods” (Arch Cancer Therapeutics, Inc., priority 2009, dated 2015)

Experiments:
Assay type in all cases: cell-based, human
p75^NTR in U87R cells = experiment: Sucrose/iodixanol density gradient fractionation with Western blot for p75NTR; settings: U87R cells on collagen, treated 2 hours, 10-40% sucrose/iodixanol gradient
Source text: White arrows indicate higher molecular weight p75^NTR-containing complexes. Lines underneath the figure indicate the fractions in which common organelles are generally found;
The p75^NTR can be detected differentially in lipid rafts isolated with specific detergents, and must be proteolytically processed to trigger cell migration in glioma cells. Thus, it is probable that p75^NTR is also cleaved within a lipid raft after endocytosis. To determine if H10 may be having an impact on endosomally located p75^NTR, cells were hypertonically lysed (to keep vesicles and organelles at least partially intact) and separated on a 10-40% sucrose/iodixanol gradient from which fractions were individually collected.
Cells were scraped into 1 mL of 0.25M sucrose, 140 mM NaCl, 1 mM EDTA, 20 mM Tris-HCl, pH 8.0, and dounce homogenized until cells were no longer visible by microscopy. Debris was pelleted for 5 min, 800×g and the supernatant was loaded on top of a 10 mL continuous 10-40% gradient, prepared by the dilution of OptiPrep (Sigma, 60% iodixanol) with 0.25M sucrose, 140 mM NaCl, 3 mM EDTA, 60 mM Tris-HCl, pH8.0. Gradients were spun in a swinging bucket rotor at 48000×g for 18 hrs and 0.5 mL fractions were collected. Total protein was precipitated from each fraction by the addition of 2 volumes of −20° C. […]

[1] = system: transferrin or its receptor (markers of clathrin-coated vesicles); experiment: FITC-transferrin uptake and transferrin receptor gradient fractionation; settings: U87p75 and U87R cells, 2 hours
Procedure: FIG. 9A are confocal images of p75^NTR transfected glioma cells (U87p75) imaged for uptake of FITC-transferrin.
Cells were lysed, fractioned using an iodixanol gradient, and Western Blot analysis for the transferrin receptor was performed;
Cells were scraped into 1 mL of 0.25M sucrose, 140 mM NaCl, 1 mM EDTA, 20 mM Tris-HCl, pH 8.0, and dounce homogenized until cells were no longer visible by microscopy. Debris was pelleted for 5 min, 800×g and the supernatant was loaded on top of a 10 mL continuous 10-40% gradient, prepared by the dilution of OptiPrep (Sigma, 60% iodixanol) with 0.25M sucrose, 140 mM NaCl, 3 mM EDTA, 60 mM Tris-HCl, pH8.0. Gradients were spun in a swinging bucket rotor at 48000×g for 18 hrs and 0.5 mL fractions were collected. Total protein was precipitated from each fraction by the addition of 2 volumes of −20° C. 20 mM DTT, 15% TCA, storage at −20° C. overnight, followed by centrifugation at 4° C. for 20 minutes. Pellets were resuspended in 20 μL 1M Tris and 20 μL 2× Laemmli buffer. The entire volume was loaded into a single well for SDS-PAGE resolution and western transfer.

[2] = system: U87MG cells transfected with p75^NTR; experiment: Transwell migration assay, p75NTR-transfected U87MG; settings: in vitro invasion assay
Procedure: The membranes of 8 μm pore sized transwell inserts (Corning Costar) were coated with brain-like matrix (720 μL of 3 mg/mL collagen I (PureCol); 180 μL of 10×DMEM (Invitrogen); 9 uL of 1 mg/mL human plasma fibronectin (Sigma); 9 uL of 1 mg/mL chondroitin sulfate proteoglycans (Chemicon); 16 μL of 0.15 mg/mL laminin (Chemicon)) on both sides, allowed to dry, then plated with 5×10^4 cells in 100 μL media in the upper chamber and 500 μL media in the lower chamber. Inclusion of collagen was essential to see the inhibitory effect of H10 (FIG. S4). 3×10^10 pfu of test phage were added to the upper chambers containing the cells, which were incubated for 4 hours under normal culture conditions. At the end of the incubation, the media was aspirated and the cells were fixed and stained in 1% crystal violet in 95% ethanol for one minute. Transwells were rinsed in PBS, then cells on the upper membrane surfaces were removed with a cotton swab. Cells which had migrated to the undersurface of the membranes were counted by light microscopy, and the sum of cells in five microscopic fields was recorded for each membrane.

[3] = system: lipid raft marker GM1 in U87R cells; settings: cholesterol oxidase, Alexa 555-cholera toxin B subunit, 120 minutes

cholesterol oxidase
distribution of p75^NTR forms in density gradient fractions (p75^NTR in U87R cells): shift of higher molecular weight forms of p75^NTR into the denser gradient fractions
intracellular localization or gradient fractionation of transferrin or its receptor [1]: no effect
cell migration of U87p75 glioma cells [2]: significantly inhibited cell migration
GM1 localisation [3]: accumulate within the cells, particularly at the plasma membrane
